One assay deals with T1, ROCK2 (Homo sapiens, UniProt O75116).
T1 construct: N-terminal 6His-tagged ROCK2 catalytic domain 11-552; 6His (N); purchased Dundee University, UK; host or cells: baculovirus expression system
Kind of assay: ROCK2 inhibition assay (ADP-Glo kinase assay, called ROCK2 binding activity). In kind it is biochemical. The conditions noted are these: 20 μM ATP, 1 hour pre-incubation, read-out: ROCK 2 (IC50 category). The procedure: ROCK2 Binding Activity: Assay for ROCK2 inhibition was performed using the protein construct N-terminal 6His-tagged ROCK2 catalytic domain 11-552 (Dundee University, UK). Protein was purified from a baculovirus expression system. Long S6 peptide ([…]) was used as substrate. Kinase reactions were carried out in 15 μl volume in a 96-well plate (black, half area) using 1.25 nM constitutively active ROCK2 kinase, 100 μM long S6 peptide, 20 μM ATP and test compound in DMSO (or DMSO only for controls). The final concentration of DMSO was 1%. Assay buffer was 50 mM HEPES pH 7.5 supplemented with 0.2 mM EDTA, 10 mM magnesium acetate, 0.01% Tween-20, 1 mM DTT and 0.01% BSA. Test compounds were pre-incubated with ROCK2 kinase for 1 hour before addition of ATP and long S6 peptide. After incubation for a further 1 hour, the amount of ADP produced was measured using ADP-Glo Kinase Assay (Promega) as per manufacturer's instructions. The luminescence was measured on a PHERAstar FS (BMG Labtech). The concentration of test compound required to inhibit ADP production by 50% (the IC50) was calculated using a four-parameter logistic function with software by Dotmatics. […] The category “+” refers to compounds with a ROCK2 or ROCK1 IC50 value of >10 μM. The category “++” refers to compounds with a ROCK2 or ROCK1 IC50 value of 10 to 3 μM. The category “+++” refers to compounds with a ROCK1 or ROCK2 IC50 value of 3 to 0.3 μM. The category “++++” refers to compounds with a ROCK1 or ROCK2 IC50 value of <0.3 μM.

The target in another assay is ROCK1 (Homo sapiens, UniProt Q13464). Kind of assay: ROCK1 inhibition assay (ROCK1 binding activity, as determined by the assay described for ROCK2). The class given is biochemical. The conditions noted are these: read-out: ROCK 1 (IC50 category). The procedure:
Assay for ROCK2 inhibition was performed using the protein construct N-terminal 6His-tagged ROCK2 catalytic domain 11-552 (Dundee University, UK). Protein was purified from a baculovirus expression system. Long S6 peptide ([…]) was used as substrate. Kinase reactions were carried out in 15 μl volume in a 96-well plate (black, half area) using 1.25 nM constitutively active ROCK2 kinase, 100 μM long S6 peptide, 20 μM ATP and test compound in DMSO (or DMSO only for controls). The final concentration of DMSO was 1%. Assay buffer was 50 mM HEPES pH 7.5 supplemented with 0.2 mM EDTA, 10 mM magnesium acetate, 0.01% Tween-20, 1 mM DTT and 0.01% BSA. Test compounds were pre-incubated with ROCK2 kinase for 1 hour before addition of ATP and long S6 peptide. After incubation for a further 1 hour, the amount of ADP produced was measured using ADP-Glo Kinase Assay (Promega) as per manufacturer's instructions. The luminescence was measured on a PHERAstar FS (BMG Labtech). The concentration of test compound required to inhibit ADP production by 50% (the IC50) was calculated using a four-parameter logistic function with software by Dotmatics. […] The category “+” refers to compounds with a ROCK2 or ROCK1 IC50 value of >10 μM. The category “++” refers to compounds with a ROCK2 or ROCK1 IC50 value of 10 to 3 μM. The category “+++” refers to compounds with a ROCK1 or ROCK2 IC50 value of 3 to 0.3 μM. The category “++++” refers to compounds with a ROCK1 or ROCK2 IC50 value of <0.3 μM.

Our source for the IC50 values is patent US20250122173A1, “MODULATORS OF RHO-ASSOCIATED PROTEIN KINASE” (Redx Pharma Limited, priority 2022, published 2025).

T1 sequence (O75116 11-552): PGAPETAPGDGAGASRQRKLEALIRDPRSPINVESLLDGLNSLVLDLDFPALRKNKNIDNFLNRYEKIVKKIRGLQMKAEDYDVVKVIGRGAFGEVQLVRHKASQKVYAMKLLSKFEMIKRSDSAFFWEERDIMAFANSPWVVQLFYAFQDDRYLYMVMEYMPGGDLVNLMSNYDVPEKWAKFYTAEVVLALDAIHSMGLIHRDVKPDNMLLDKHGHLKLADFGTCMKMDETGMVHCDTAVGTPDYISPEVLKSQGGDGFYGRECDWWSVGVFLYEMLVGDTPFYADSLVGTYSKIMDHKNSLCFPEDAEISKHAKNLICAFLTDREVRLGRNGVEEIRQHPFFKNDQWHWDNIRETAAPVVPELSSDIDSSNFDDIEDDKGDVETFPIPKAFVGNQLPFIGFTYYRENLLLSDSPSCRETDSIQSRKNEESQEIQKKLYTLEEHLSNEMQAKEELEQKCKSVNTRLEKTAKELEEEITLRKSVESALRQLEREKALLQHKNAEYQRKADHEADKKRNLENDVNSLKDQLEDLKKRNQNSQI
Sequence of ROCK1 (Q13464 whole entry, the tested form may be a part): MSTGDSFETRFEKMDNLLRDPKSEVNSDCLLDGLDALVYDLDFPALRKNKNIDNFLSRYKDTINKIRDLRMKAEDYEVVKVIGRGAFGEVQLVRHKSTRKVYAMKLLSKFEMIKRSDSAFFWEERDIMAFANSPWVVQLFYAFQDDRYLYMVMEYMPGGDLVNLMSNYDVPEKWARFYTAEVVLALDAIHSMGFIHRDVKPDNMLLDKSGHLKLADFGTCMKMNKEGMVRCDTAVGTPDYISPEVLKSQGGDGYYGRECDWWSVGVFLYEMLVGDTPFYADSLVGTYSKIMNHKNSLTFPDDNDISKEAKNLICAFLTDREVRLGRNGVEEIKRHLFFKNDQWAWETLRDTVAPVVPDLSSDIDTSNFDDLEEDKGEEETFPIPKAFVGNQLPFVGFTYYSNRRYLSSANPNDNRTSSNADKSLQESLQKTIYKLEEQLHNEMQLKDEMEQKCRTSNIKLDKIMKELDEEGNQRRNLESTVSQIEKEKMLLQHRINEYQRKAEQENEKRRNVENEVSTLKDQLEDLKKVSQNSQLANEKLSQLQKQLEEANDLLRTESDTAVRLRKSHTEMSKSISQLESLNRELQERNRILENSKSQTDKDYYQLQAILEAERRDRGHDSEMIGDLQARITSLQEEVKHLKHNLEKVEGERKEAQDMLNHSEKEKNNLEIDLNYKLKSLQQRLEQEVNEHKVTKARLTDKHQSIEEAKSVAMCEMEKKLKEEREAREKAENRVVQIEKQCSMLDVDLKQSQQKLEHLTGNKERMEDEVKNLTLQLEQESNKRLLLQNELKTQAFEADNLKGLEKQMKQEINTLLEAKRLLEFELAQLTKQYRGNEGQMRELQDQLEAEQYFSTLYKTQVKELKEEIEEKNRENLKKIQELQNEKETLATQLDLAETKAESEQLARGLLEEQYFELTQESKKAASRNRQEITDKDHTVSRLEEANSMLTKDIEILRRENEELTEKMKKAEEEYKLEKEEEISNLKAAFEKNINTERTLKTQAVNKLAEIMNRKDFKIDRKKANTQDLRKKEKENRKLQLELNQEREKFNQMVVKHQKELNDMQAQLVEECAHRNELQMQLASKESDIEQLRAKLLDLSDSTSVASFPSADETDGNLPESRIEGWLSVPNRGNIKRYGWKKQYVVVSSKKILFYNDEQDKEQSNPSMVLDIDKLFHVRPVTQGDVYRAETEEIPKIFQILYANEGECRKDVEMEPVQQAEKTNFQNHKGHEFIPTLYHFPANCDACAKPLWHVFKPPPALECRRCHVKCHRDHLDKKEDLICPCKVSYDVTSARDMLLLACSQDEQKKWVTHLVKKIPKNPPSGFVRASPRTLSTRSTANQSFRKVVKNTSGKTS

Turning to `CCn1nc(-c2cc(C)c(-c3cn(C)c(C4CC4)n3)cc2C)nc1Nc1ccc2c(c1)C(C)NC2=O` (stereo not shown) [Example 99], the IC50 on ROCK2 was less than 0.3 µM; on ROCK1 it was 3 to 10 µM.
For `CCn1nc(-c2ccc(C3=CCNC3)cc2)nc1Nc1ccc2c(c1)CNC2=O` [Example 68], in that order: 3 to 10 µM and more than 10 µM.
The like results for `Cc1cc(-c2nc(Nc3ccc4c(c3C)CNC4=O)n(C)n2)ccc1-n1cnc(C2CC2)c1` [Example 13] were, in that order, less than 0.3 µM and more than 10 µM.
The like results for `CCn1nc(-c2ccc(-c3ncc(C)cc3C)c(C)c2)nc1Nc1cc2c(cc1C)C(=O)NC2C` (stereo not shown) [Example 90] were, in that order, 3 to 10 µM and more than 10 µM.
On to `CCn1nc(-c2ccc(-c3cnn(CC(F)(F)F)c3)cc2)nc1Nc1cc2c(cc1C)C(=O)N[C@@H]2C` [Example 163], for which the IC50 on ROCK2 is less than 0.3 µM; on ROCK1, 0.3 to 3 µM.
For `CCn1nc(-c2cc(C)c(-c3ccc(C)cn3)cc2C)nc1Nc1cc2c(cc1C)C(=O)NC2C` (stereo not shown) [Example 95], in that order: less than 0.3 µM and more than 10 µM.
With `CCn1nc(-c2cc(C)c(-c3ccc(C)nc3)cc2F)nc1Nc1cc2c(cc1C)C(=O)NC2C` (stereo not shown) [Example 83], the IC50 at ROCK2 is less than 0.3 µM; at ROCK1 it was 3 to 10 µM.
For `CCn1nc(-c2ccc(-c3ccc(C)cn3)c(F)c2)nc1Nc1ccc2c(c1)CNC2=O` [Example 79], in that order: less than 0.3 µM and more than 10 µM.
On to `CCn1nc(-c2ccc(-n3cnc(C4CC4)c3)cc2)nc1Nc1ccc2c(c1)CNC2=O` [Example 24], for which the IC50 on ROCK2 is less than 0.3 µM; on ROCK1 it was 3 to 10 µM.
As to `CCn1nc(-c2ccc(C3=CCN(C)CC3)cc2C)nc1Nc1cc2c(cc1C)C(=O)NC2C` (stereo not shown) [Example 117], the IC50 is 0.3 to 3 µM on ROCK2 and more than 10 µM on ROCK1.
On to `CCn1nc(-c2ccc(-c3ccc(C4CC4)nc3)cc2)nc1Nc1ccc2c(c1)CNC2=O` [Example 20], for which the IC50 at ROCK2 was less than 0.3 µM; at ROCK1 it was 3 to 10 µM.
The like results for `CCn1nc(-c2cc(C)c(-c3ccc(C)nc3)cc2C)nc1Nc1cc2c(cc1C)C(=O)NC2C` (stereo not shown) [Example 77] were, in that order, less than 0.3 µM and 3 to 10 µM.
For `CCn1nc(-c2ccc(-c3cnc(C4CC4)n3C)cc2)nc1Nc1ccc2c(c1C)CNC2=O` [Example 11], in that order: 3 to 10 µM and more than 10 µM.
Turning to `CCn1nc(-c2ccc(-n3cc(C4CC4)nc3C)cc2)nc1Nc1ccc2c(c1)CNC2=O` [Example 4], the IC50 at ROCK2 is less than 0.3 µM; at ROCK1, 3 to 10 µM.
For `CCn1nc(-c2ccc(-n3cnc(C4CC4)c3)cc2C)nc1Nc1cc2c(cc1C)C(=O)N[C@H]2C` [Example 159], the results for the IC50 at ROCK2 and on ROCK1 were less than 0.3 µM and 0.3 to 3 µM, respectively.
For `CCn1nc(-c2cc(C)c(-c3cn(C)c(C4CC4)n3)cc2F)nc1Nc1ccc2c(c1)C(C)NC2=O` (stereo not shown) [Example 113], in that order: less than 0.3 µM and 3 to 10 µM.
The like results for `CCn1nc(-c2ccc(-c3ccc(C)nc3)c(C(C)=O)c2)nc1Nc1cc2c(cc1C)C(=O)NC2C` (stereo not shown) [Example 125] were, in that order, less than 0.3 µM and more than 10 µM.
For `CCn1nc(-c2ccc(-c3ccc(C4CC4)nc3)cc2F)nc1Nc1cc2c(cc1C)C(=O)NC2C` (stereo not shown) [Example 73], in that order: less than 0.3 µM and 3 to 10 µM.
In the case of `CCn1nc(-c2ccc(-c3ccc(C4CC4)cn3)c(C)c2)nc1Nc1cc2c(cc1C)C(=O)NC2C` (stereo not shown) [Example 103], the IC50 is less than 0.3 µM at ROCK2 and 3 to 10 µM on ROCK1.
For `CCn1nc(-c2ccc(-c3ccn(CC(F)(F)F)c3)c(C)c2)nc1Nc1cc2c(cc1C)C(=O)NC2C` (stereo not shown) [Example 139], in that order: less than 0.3 µM and 0.3 to 3 µM.
The like results for `CCn1nc(-c2ccc(-c3ccc(C)cn3)cc2)nc1Nc1cc2c(cc1C)C(=O)NC2C` (stereo not shown) [Example 104] were, in that order, less than 0.3 µM and 3 to 10 µM.
Take `Cc1nc(C2CC2)cn1-c1ccc(-c2nc(Nc3ccc4c(c3)C(C)(C)NC4=O)n(C)n2)cc1` [Example 17]: the IC50 at ROCK2 is 3 to 10 µM; at ROCK1, more than 10 µM.
The like results for `CCn1nc(-c2ccc(-c3ccc(C4CC4)nc3)cc2)nc1Nc1cc2c(cc1F)C(=O)NC2C` (stereo not shown) [Example 130] were, in that order, less than 0.3 µM and 3 to 10 µM.
For `CCn1nc(-c2ccc(-c3cn(C)c(C4CC4)n3)cc2C)nc1Nc1cc2c(cc1C)C(=O)NC2C` (stereo not shown) [Example 122], in that order: less than 0.3 µM and 3 to 10 µM.
On to `CCn1nc(-c2ccc(-c3ccnc(C4CC4)c3)c(C)c2)nc1Nc1ccc2c(c1)CNC2=O` [Example 32], for which the IC50 on ROCK2 and on ROCK1 was less than 0.3 µM in each case.
On to `CCn1nc(-c2ccc(C3=CCNCC3)cc2)nc1Nc1ccc2c(c1)CNC2=O` [Example 67], for which the IC50 on ROCK2 and at ROCK1 was 3 to 10 µM in each case.
For `CCn1nc(-c2ccc(-c3ccc(C)cn3)c(C)c2)nc1Nc1ccc2c(c1)C(C)NC2=O` (stereo not shown) [Example 53], the IC50 at ROCK2 was less than 0.3 µM; on ROCK1, more than 10 µM.
For `CCn1nc(-c2ccc(C3CCCN(C)C3)cc2)nc1Nc1cc2c(cc1C)C(=O)NC2C` (stereo not shown) [Example 151], in that order: more than 10 µM and more than 10 µM.
In the case of `CCn1nc(-c2ccc(C3CCC(C)NC3)cc2)nc1Nc1cc2c(cc1C)C(=O)NC2C` (stereo not shown) [Example 148], the concentration for half-maximal inhibition (IC50) at ROCK2 and on ROCK1 was more than 10 µM in each case.
For `CCn1nc(-c2ccc(-c3ccc(C4CC4)nc3)cc2)nc1Nc1cc2c(cc1F)C(=O)N[C@H]2C` [Example 161], the half-maximal inhibitory concentration (IC50) was less than 0.3 µM on ROCK2 and 3 to 10 µM at ROCK1.
Take `Cn1nc(-c2ccc(C(=O)NCC(F)F)cc2)nc1Nc1ccc2c(c1)CNC2=O` [Example 7]: the IC50 on ROCK2 is 3 to 10 µM; at ROCK1, more than 10 µM.
The like results for `CCn1nc(-c2ccc(C3=CCN(C)CC3)cc2)nc1Nc1cc2c(cc1C)C(=O)NC2C` (stereo not shown) [Example 116] were, in that order, 3 to 10 µM and more than 10 µM.
The like results for `CCn1nc(-c2ccc(-c3ccc(C4CC4)nc3)cc2F)nc1Nc1ccc2c(c1)C(C)NC2=O` (stereo not shown) [Example 74] were, in that order, less than 0.3 µM and 3 to 10 µM.
The like results for `CCn1nc(-c2ccc(-c3ccc(C)nc3)cc2)nc1Nc1ccc2c(c1)CNC2=O` [Example 15] were, in that order, less than 0.3 µM and 3 to 10 µM.
For the molecule `CCn1nc(-c2cc(C)c(-c3ccc(C4CC4)cn3)cc2C)nc1Nc1ccc2c(c1)C(C)NC2=O` (stereo not shown) [Example 135], the IC50 on ROCK2 is less than 0.3 µM; on ROCK1, more than 10 µM.
For `CCn1nc(-c2ccc(-c3ccc(C(C)(C)O)nc3)c(C)c2)nc1Nc1cc2c(cc1C)C(=O)NC2C` (stereo not shown) [Example 154], in that order: less than 0.3 µM and 0.3 to 3 µM.
For `CCn1nc(-c2ccc(-c3ccc(C4CC4)nc3)c(C)c2)nc1Nc1ccc2c(c1)CNC2=O` [Example 40], in that order: less than 0.3 µM and more than 10 µM.
For `CCn1nc(-c2ccc(C3CCN(CC(F)(F)F)C3)c(C)c2)nc1Nc1cc2c(cc1C)C(=O)NC2C` (stereo not shown) [Example 138], in that order: less than 0.3 µM and more than 10 µM.
For `CCn1nc(-c2ccc(-c3cnc(C4CC4)n3C)cc2)nc1Nc1cc2c(cc1C)C(=O)NC2C` (stereo not shown) [Example 58], the concentration for half-maximal inhibition (IC50) at ROCK2 was less than 0.3 µM; at ROCK1 it was 3 to 10 µM.
In the case of `CCn1nc(-c2ccc(-c3ccc(C4CC4)nc3)cc2C)nc1Nc1cc2c(cc1C)C(=O)NC2C` (stereo not shown) [Example 56], the 50% inhibitory concentration (IC50) on ROCK2 is less than 0.3 µM; on ROCK1 it was 3 to 10 µM.
For `CCn1nc(-c2ccc(-c3ccc(C(C)(C)O)nc3)cc2)nc1Nc1cc2c(cc1C)C(=O)NC2C` (stereo not shown) [Example 157], in that order: less than 0.3 µM and 0.3 to 3 µM.
